Results on 1 molecule are retold here after EP3909969A1, “PEPTIDE FOR HYDROGEL FORMATION” (Freie Universität Berlin, priority 2020, dated 2021).

The test system of the data set is NIH/3T3 embryonic mouse fibroblast cells. The data set can be described thus: Cytotoxicity assay of hydrogel cultured cells by Cell Counting Kit-8 (CCK-8). The data set is classed as cell-based. Conditions: hydrogel at 0.3 wt%, after 24 h, NIH/3T3 cells. How it is done:
NIH/3T3 embryonic mouse fibroblast cells were cultured in DMEM culture medium (Lonza, 4,5 g/L glucose, 10 % FCS, 1 % penicillin/streptomycin) in a humidified incubator (5 % CO2, 37°C). The cells were grown in 175 cm^2 cell culture flaks and medium was changed thrice a week. Upon confluency of 70 % - 80 % the culture was subcultured according to the detected cell number.
To determine whether different peptide hydrogel compositions would be tolerated by the cells CCK-8 was used to conduct viability of cells during a 3 days cell culture. A suspension of NIH/3T3 cells in DMEM (4.5 g/L, 10 % FCS, 1 % penicillin/streptomycin) was seeded in a transparent 96-well plate with a density of 10.000 cells in an overall volume of 100 µL per well containing the respecting hydrogels. 10 µL of 1 % (w/v) SDS was added to the respective wells of positive control and the plate was further incubated for 24 h and 72 h at 37°C and 5 % CO2 respectively. After each time points 10 µL of CCK-8 solution were added to each well and allowed to incubate for 2 h in a humidified incubator at 37°C. During this time dehydrogenases in viable cells reduces WST-8 tetrazolium to formazan, which will be detected by measuring the absorbance at 450 nm. Absorbance was measured by using a Tecan Infinite 200 Pro microplate reader. Three experiments were performed in triplicates per hydrogel candidate (n=3). […]
In general terms: Tetrazolium assays rely on reduction of a dye to a coloured formazan, in cell work by metabolically active cells.

The structures appear in SMILES notation.

In the case of `CC(C)C[C@H](NC(=O)[C@H](CCC(=O)O)NC(=O)[C@H](CCCCN)NC(=O)[C@H](CCCCN)NC(=O)[C@H](CC(C)C)NC(=O)[C@H](C)NC(=O)[C@H](C)NC(=O)[C@H](CC(C)C)NC(=O)[C@H](CCC(=O)O)NC(=O)[C@H](CCCCN)NC(=O)[C@H](CCCCN)NC(=O)[C@H](CC(C)C)NC(=O)[C@H](C)NC(=O)[C@H](C)NC(=O)[C@H](CC(C)C)NC(=O)[C@H](CCC(=O)O)NC(=O)[C@H](CCCCN)NC(=O)[C@H](CCCCN)NC(=O)[C@H](CC(C)C)NC(=O)[C@H](C)NC(=O)[C@H](C)NC(=O)[C@H](CC(C)C)NC(=O)[C@H](CCC(=O)O)NC(=O)[C@H](CCCCN)NC(=O)[C@H](CCCCN)NC(=O)[C@H](CC(C)C)NC(=O)c1ccccc1N)C(=O)O` [hFF03], the “viability compared to the control” value is “higher than 160%”.
